Columns and labels:
[1] = system: barnyardgrass; assay: Test A preemergence; format: in vivo, Echinochloa crus-galli; settings: preemergence; for Barnyardgrass plant response rating (0 to 100 scale, 0 is no effect, 100 is complete control): visual injury approx. 10 days after treatment
In short: (§1)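 Greenhouse test in loam soil/sand blend; compounds formulated in non-phytotoxic solvent with surfactant, applied as preemergence directed soil spray or postemergence to plants 2–10 cm tall at one- to two-leaf stage. Injury rated visually versus untreated controls after approximately 10 days on a 0 (no effect) to 100 (complete control) scale.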

[2] = system: crabgrass, large; assay: Test A preemergence; format: in vivo, Digitaria sanguinalis; settings: preemergence; for Crabgrass, Large plant response rating (0 to 100 scale): visual injury approx. 10 days after treatment
In short: as §1

[3] = system: velvetleaf; assay: Test A preemergence; format: in vivo, Abutilon theophrasti; settings: preemergence; for Velvetleaf plant response rating (0 to 100 scale): visual injury approx. 10 days after treatment
In short: as §1

[4] = system: wheat; assay: Test A preemergence; format: in vivo, Triticum aestivum; settings: preemergence; for Wheat plant response rating (0 to 100 scale): visual injury approx. 10 days after treatment
In short: as §1

[5] = system: corn; assay: Test A preemergence; format: in vivo, Zea mays; settings: preemergence; for Corn plant response rating (0 to 100 scale): visual injury approx. 10 days after treatment
In short: as §1

[6] = system: crabgrass, large; assay: Test A postemergence; format: in vivo, Digitaria sanguinalis
In short: as §1

[7] = system: pigweed; assay: Test A postemergence; format: in vivo, Amaranthus retroflexus
In short: as §1

[8] = system: wheat; assay: Test A postemergence; format: in vivo, Triticum aestivum
In short: as §1

[9] = system: blackgrass; assay: Test C preemergence; format: in vivo, Alopecurus myosuroides; settings: preemergence; for Plant response rating, Blackgrass: 125 g ai/ha, scale 0 to 100, 0 = no effect, 100 = complete control
In short: (§2)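 Postemergence values come from plants sprayed at the 1- to 4-leaf stage (2–18 cm) in peat moss–vermiculite medium; preemergence values from seeds treated in a loam–sand blend. Both evaluated visually against controls after 13–15 greenhouse days, scale 0–100.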

[10] = system: wheat; assay: Test C preemergence; format: in vivo, Triticum aestivum; settings: preemergence; for Plant response rating, Wheat: 125 g ai/ha, scale 0 to 100, 0 = no effect, 100 = complete control
In short: as §2

[11] = system: corn; assay: Test C preemergence; format: in vivo, Zea mays; settings: preemergence; for Plant response rating, Corn: 125 g ai/ha, scale 0 to 100, 0 = no effect, 100 = complete control
In short: as §2

[12] = system: foxtail, giant; assay: Test C preemergence; format: in vivo, Setaria faberii; settings: preemergence; for Plant response rating, Foxtail, Giant: 125 g ai/ha, scale 0 to 100, 0 = no effect, 100 = complete control
In short: as §2

[13] = system: johnsongrass; assay: Test C preemergence; format: in vivo, Sorghum halepense; settings: preemergence; for Plant response rating, Johnsongrass: 125 g ai/ha, scale 0 to 100, 0 = no effect, 100 = complete control
In short: as §2

[14] = system: ragweed; assay: Test C preemergence; format: in vivo, Ambrosia elation; settings: preemergence; for Plant response rating, Ragweed: 125 g ai/ha, scale 0 to 100, 0 = no effect, 100 = complete control
In short: as §2

[15] = system: barnyardgrass; assay: Test C preemergence; format: in vivo, Echinochloa crus-galli; settings: preemergence; for Plant response rating, Barnyardgrass: 125 g ai/ha, scale 0 to 100, 0 = no effect, 100 = complete control
In short: as §2

[16] = system: oilseed rape; assay: Test C preemergence; format: in vivo, Brassica napus; settings: preemergence; for Plant response rating, Oilseed Rape: 125 g ai/ha, scale 0 to 100, 0 = no effect, 100 = complete control
In short: as §2

[17] = system: velvetleaf; assay: Test C preemergence; format: in vivo, Abutilon theophrasti; settings: preemergence; for Plant response rating, Velvetleaf: 125 g ai/ha, scale 0 to 100, 0 = no effect, 100 = complete control
In short: as §2

[18] = 500 g ai/ha, visual injury after approx. 10 days, 0 to 100 scale (0 no effect, 100 complete control)
[19] = Postemergence, 500 g ai/ha, 0 to 100 scale (0 no effect, 100 complete control)
[20] = postemergence, 125 g ai/ha, about 10 days, visual rating on 0 to 100 scale (0 no effect, 100 complete control)
[21] = Postemergence, 125 g ai/ha, 0 to 100 scale, 0 no effect, 100 complete control
[22] = 31 g ai/ha, visual rating, scale 0 to 100 (0 no effect, 100 complete control), 13 to 15 days
[23] = 62 g ai/ha, scale 0 to 100 (0 no effect, 100 complete control), 13 to 15 days
[24] = 250 g ai/ha, scale 0 to 100, 0 is no effect, 100 is complete control
[25] = 125 g ai/ha, visual injury, 0 to 100 scale, approx. 10 days

CCc1cc(C(=O)NCC2CC2)nn1Cc1ccnc(C(F)(F)F)c1 [Compound 199]
75: Plant response rating, Corn ([11]; 13 to 15 days)
85: Wheat plant response rating [10, 23] | Ragweed plant response rating [14, 23]
100: Barnyardgrass plant response rating (0 to 100 scale, 0 is no effect, 100 is complete control) ([1]; 125 g ai/ha) | Barnyardgrass plant response rating [1, 18] | Crabgrass, Large plant response rating (0 to 100 scale) ([2]; 125 g ai/ha) | Crabgrass, Large plant response rating [2, 18] | Velvetleaf plant response rating (0 to 100 scale) ([3]; 125 g ai/ha) | Velvetleaf plant response rating [3, 18] | Wheat plant response rating [4, 18] | Pigweed plant response rating [7, 21] | Pigweed plant response rating [7, 19] | Foxtail, Giant plant response rating [12, 22] | Foxtail, Giant plant response rating [12, 23] | Plant response rating, Foxtail, Giant ([12]; 13 to 15 days) | Foxtail, Giant plant response rating [12, 24] | Johnsongrass plant response rating [13, 24] | Barnyardgrass plant response rating [15, 23] | Plant response rating, Barnyardgrass ([15]; 13 to 15 days) | Barnyardgrass plant response rating [15, 24] | Plant response rating, Oilseed Rape ([16]; 13 to 15 days) | Oilseed Rape plant response rating [16, 24] | Velvetleaf plant response rating [17, 23] | Plant response rating, Velvetleaf ([17]; 13 to 15 days) | Velvetleaf plant response rating [17, 24]
95: Plant response rating, Ragweed ([14]; 13 to 15 days) | Ragweed plant response rating [14, 24] | Barnyardgrass plant response rating [15, 22] | Oilseed Rape plant response rating [16, 23]
45: Johnsongrass plant response rating [13, 22]
40: Velvetleaf plant response rating [17, 22]
80: Wheat plant response rating [8, 19] | Oilseed Rape plant response rating [16, 22]
60: Wheat plant response rating [10, 22]
30: Ragweed plant response rating [14, 22]
20: Corn plant response rating [11, 22]
98: Plant response rating, Johnsongrass ([13]; 13 to 15 days)
70: Corn plant response rating (0 to 100 scale) ([5]; 125 g ai/ha) | Wheat plant response rating [8, 21] | Johnsongrass plant response rating [13, 23]
90: Wheat plant response rating (0 to 100 scale) ([4]; 125 g ai/ha) | Corn plant response rating [5, 18] | Crabgrass, Large plant response rating [6, 19] | Crabgrass, Large plant response rating [6, 20] | Blackgrass plant response rating [9, 22] | Blackgrass plant response rating [9, 23] | Plant response rating, Blackgrass ([9]; 13 to 15 days) | Blackgrass plant response rating [9, 24] | Plant response rating, Wheat ([10]; 13 to 15 days) | Wheat plant response rating [10, 24] | Corn plant response rating [11, 24]
65: Corn plant response rating [11, 23]

O=C(NCC(F)(F)F)c1cc(CCCl)n(Cc2ccnc(C(F)(F)F)c2)n1 [Compound 143]
100: Barnyardgrass plant response rating [1, 18] | Crabgrass, Large plant response rating [2, 25] | Crabgrass, Large plant response rating [2, 18] | Velvetleaf plant response rating [3, 18] | Wheat plant response rating [4, 18] | Pigweed plant response rating [7, 19] | Pigweed plant response rating [7, 20] | Foxtail, Giant plant response rating [12, 22] | Foxtail, Giant plant response rating [12, 23] | Plant response rating, Foxtail, Giant ([12]; 13 to 15 days) | Foxtail, Giant plant response rating [12, 24] | Ragweed plant response rating [14, 24] | Barnyardgrass plant response rating [15, 23] | Plant response rating, Barnyardgrass ([15]; 13 to 15 days) | Barnyardgrass plant response rating [15, 24] | Oilseed Rape plant response rating [16, 22] | Oilseed Rape plant response rating [16, 23] | Oilseed Rape plant response rating [16, 24] | Velvetleaf plant response rating [17, 22] | Plant response rating, Velvetleaf ([17]; 13 to 15 days) | Velvetleaf plant response rating [17, 24]
98: Ragweed plant response rating [14, 22] | Ragweed plant response rating [14, 23] | Velvetleaf plant response rating [17, 23]
85: Blackgrass plant response rating [9, 22] | Blackgrass plant response rating [9, 23] | Wheat plant response rating [10, 24] | Johnsongrass plant response rating [13, 23]
70: Wheat plant response rating [4, 25] | Johnsongrass plant response rating [13, 22]
40: Wheat plant response rating [10, 22] | Corn plant response rating [11, 22]
50: Velvetleaf plant response rating [3, 25] | Corn plant response rating [5, 25]
95: Corn plant response rating [11, 24] | Plant response rating, Johnsongrass ([13]; 13 to 15 days) | Johnsongrass plant response rating [13, 24] | Plant response rating, Ragweed ([14]; 13 to 15 days) | Plant response rating, Oilseed Rape ([16]; 13 to 15 days)
80: Corn plant response rating [5, 18] | Wheat plant response rating [8, 19] | Plant response rating, Wheat ([10]; 13 to 15 days)
90: Barnyardgrass plant response rating [1, 25] | Crabgrass, Large plant response rating [6, 19] | Crabgrass, Large plant response rating [6, 20] | Plant response rating, Blackgrass ([9]; 13 to 15 days) | Blackgrass plant response rating [9, 24] | Plant response rating, Corn ([11]; 13 to 15 days)
75: Corn plant response rating [11, 23] | Barnyardgrass plant response rating [15, 22]
60: Wheat plant response rating [8, 20] | Wheat plant response rating [10, 23]

CCNC(=O)c1cc(CCCl)n(Cc2ccnc(C(F)(F)F)c2)n1 [Compound 179]
90: Crabgrass, Large plant response rating [6, 19] | Crabgrass, Large plant response rating [6, 20] | Plant response rating, Blackgrass ([9]; 13 to 15 days) | Ragweed plant response rating [14, 22]
35: Velvetleaf plant response rating [17, 22]
75: Plant response rating, Johnsongrass ([13]; 13 to 15 days)
0: Wheat plant response rating [10, 22] | Wheat plant response rating [10, 23]
80: Plant response rating, Wheat ([10]; 13 to 15 days) | Velvetleaf plant response rating [17, 23]
30: Wheat plant response rating [8, 20] | Plant response rating, Corn ([11]; 13 to 15 days)
70: Wheat plant response rating [8, 19]
85: Wheat plant response rating [10, 24] | Oilseed Rape plant response rating [16, 23]
10: Wheat plant response rating (0 to 100 scale) ([4]; 125 g ai/ha) | Corn plant response rating (0 to 100 scale) ([5]; 125 g ai/ha) | Corn plant response rating [11, 23] | Johnsongrass plant response rating [13, 22] | Johnsongrass plant response rating [13, 23]
95: Blackgrass plant response rating [9, 24] | Corn plant response rating [11, 24]
98: Foxtail, Giant plant response rating [12, 22] | Johnsongrass plant response rating [13, 24] | Ragweed plant response rating [14, 23] | Plant response rating, Ragweed ([14]; 13 to 15 days) | Ragweed plant response rating [14, 24] | Barnyardgrass plant response rating [15, 23]
100: Barnyardgrass plant response rating (0 to 100 scale, 0 is no effect, 100 is complete control) ([1]; 125 g ai/ha) | Barnyardgrass plant response rating [1, 18] | Crabgrass, Large plant response rating (0 to 100 scale) ([2]; 125 g ai/ha) | Crabgrass, Large plant response rating [2, 18] | Velvetleaf plant response rating [3, 18] | Wheat plant response rating [4, 18] | Pigweed plant response rating [7, 19] | Pigweed plant response rating [7, 20] | Foxtail, Giant plant response rating [12, 23] | Plant response rating, Foxtail, Giant ([12]; 13 to 15 days) | Foxtail, Giant plant response rating [12, 24] | Plant response rating, Barnyardgrass ([15]; 13 to 15 days) | Barnyardgrass plant response rating [15, 24] | Plant response rating, Oilseed Rape ([16]; 13 to 15 days) | Oilseed Rape plant response rating [16, 24] | Plant response rating, Velvetleaf ([17]; 13 to 15 days) | Velvetleaf plant response rating [17, 24]
60: Barnyardgrass plant response rating [15, 22] | Oilseed Rape plant response rating [16, 22]
50: Velvetleaf plant response rating (0 to 100 scale) ([3]; 125 g ai/ha) | Corn plant response rating [5, 18]
40: Blackgrass plant response rating [9, 23]
5: Blackgrass plant response rating [9, 22] | Corn plant response rating [11, 22]

— patent US20150105252A1, “SUBSTITUTED PYRAZOLES AS HERBICIDES” (E I DU PONT DE NEMOURS AND COMPANY, priority 2013, published 2015)
